How the values were obtained:
[1] = Persistence of radiolabeled Compound 10 in rabbit knee joints; type: in vivo; conditions: rabbits; two single IA injections in two knees at 4 μg/knee; after 1 hour up to 168 hours
[2] = test system: Tumor Necrosis Factor Alpha (TNF-α); assay: Inhibition of TNF-α secretion in IL-1β-stimulated synovial fibroblasts (SW982), ELISA; type: cell-based; conditions: human synovial fibroblasts stimulated with IL-1β, treated 24 hrs, FIG. 14A
Description: (§1) Synovial fibroblasts (SW982 cells; ATCC) were cultured in Leibovitz's L-15 Medium (ATCC) with 10% FBS at 37° C. and 0% CO2. 24 hours before the start of the assay, media was changed to Leibovitz's L-15 Medium with […]. Compound 10 was dissolved in DMSO as a 10 mM stock and used to prepare compound source plates. A serial dilution (8-point dose-response) and compound transfer was performed using the ECHO 550 (Labcyte, Sunnyvale, Calif.) into 96-well clear bottom assay plates (Greiner Bio-One) with appropriate DMSO backfill for a final DMSO concentration of 0.05%. […] Plates were spun in a centrifuge for 1 minute at 10,000 rpm and supernatants were collected for ELISA.
(§2) Supernatants were diluted 1:1 for the TNFα assay and 1:4 for the IL6 assay using the assay medium. ELISA was performed using Human TNF-α ELISA MAX™ Deluxe (Catalog #430204, Biolegend, San Diego, Calif.) and Human IL-6 ELISA MAX™ Deluxe (Catalog #430504, Biolegend, San Diego, Calif.) kits. […] Following several washes to remove unbound avidin-HRP, the TMB substrate was added and the plates were read on the Cytation 3 plate reader (Biotek Inc., Winooski, Vt.) at an absorbance of 450 nm with correction at 570 nm. […] Inhibition profile and EC50 was calculated using Prism 5 (GraphPad Software Inc, La Jolla, Calif., USA).

Interleukin 6 (IL-6) = assay: Inhibition of IL-6 secretion in IL-1β-stimulated synovial fibroblasts (SW982), ELISA; type: cell-based; conditions: human synovial fibroblasts stimulated with IL-1β, treated 24 hrs, FIG. 14A
Description: as §1, §2

[3] = Quantitative whole body autoradiography and excretion of radiolabeled Compound 10 in rats; type: in vivo; conditions: SD rats, two IA injections at 1 μg/knee
Description: In terms of excretion, 95% of the excreted radioactivity was recovered in the feces and only 5% in the urine. QWBA radiographic images and quantitation of radioactivity in the feces with much less recovery in the urine, support the hypothesis that [^3H]-Compound 10 is being eliminated by drainage in the lumbar and inguinal lymph ducts and lymph nodes, and through the small and large intestines and cecum in a mechanism consistent with slow passive fecal excretion, a major route of elimination of slowly metabolized xenobiotics. During this process, the radiolabeled [3H]-Compound 10 was degraded with only ˜1.5% of parent detected in the fecal matter.

IL-2 = assay: Inhibition of IL-2 in LPS-stimulated primary PBMCs (MSD U-plex); type: cell-based; conditions: human PBMCs, LPS (500 ng/mL), Compound 10 (150 nM), 24 hrs; MSD platform; FIG. 15
Description: (§3) Primary peripheral blood mononuclear cells (PBMCs) freshly isolated from healthy human donors were obtained from AllCells Inc. and utilized for assays immediately. Compound 10 was dissolved in DMSO as a 10 mM stock and used to prepare compound source plates. A serial dilution (8-point dose-response) and compound transfer was performed using the ECHO 550 (Labcyte, Sunnyvale, Calif.) into 96-well clear bottom assay plates (Greiner Bio-One) with appropriate DMSO backfill for a final DMSO concentration of 0.05%. PBMCs were plated at 2×10e^5 cells/well in Roswell Park Memorial Institute (RPMI) 1640 Medium (Catalog #21870-100, Buffalo, N.Y.) with 1% L-glutamine, 1% HEPES, 1% Sodium Pyruvate, 2% Sodium Bicarbonate supplemented with 100 units/mL penicillin, 50 μg/mL streptomycin and 1% fetal bovine serum (Catalog #16140089, Life Technologies, Carlsbad, Calif.). […]
(§4) Supernatants were diluted appropriately for ELISA. […] Following several washes to remove unbound avidin-HRP, the TMB substrate was added and the plates were read on the Cytation 3 plate reader (Biotek Inc., Winooski, Vt.) at an absorbance of 450 nm with correction at 570 nm. […] Inhibition profile and EC50 was calculated using Prism 5 (GraphPad Software Inc, La Jolla, Calif., USA). […] Levels of cytokines were calculated using software form Meso Scale Discovery.

IFN-γ = assay: Inhibition of IFN-γ in LPS-stimulated primary PBMCs (MSD U-plex); type: cell-based; conditions: human PBMCs, LPS (500 ng/mL), Compound 10 (150 nM), 24 hrs; MSD platform; FIG. 15
Description: as §3, §4

administered radioactivity recovered in the knee [1]: 75% | excreted radioactivity recovered in the feces [3]: 95% | excreted radioactivity recovered in the urine [3]: 5% | parent detected in the fecal matter [3]: ~1.5% | total radioactivity recovered from the whole carcass, feces, urine and cage wash ([3]; QWBA): ~75% | radioactivity in major organs ([3]; at 1 hour and up to 168 hours post-IA injection): negligible/undetectable
SMILES: CC(C)CC(=O)Nc1cncc(-c2ccc3[nH]nc(-c4nc5c(-c6cccc(F)c6)cncc5[nH]4)c3c2)c1 [Compound 10]
inhibition of TNF-a secretion [2]: inhibition | inhibition of IL-6 secretion (Interleukin 6 (IL-6)): inhibition | Inhibition of IL-2 (IL-2): Inhibition | Inhibition of IFN-γ (IFN-γ): Inhibition
